Assay results: patent publication US12459932B2, “KIF18A inhibitors” (AMGEN INC., priority 2018, dated 2025)

Molecular target: T1, Recombinant human KIF18A (1-467 His-tagged) (Homo sapiens, UniProt Q8NI77)
T1 construct: Recombinant human KIF18A (1-467 His-tagged) protein; His
Assay: KIF18A Enzyme Assay: microtubule-stimulated ATPase activity (ADP-Glo)
Type: biochemical
Settings: 30 nM KIF18A, 30 μg/mL pig microtubules, ATP 75 μM (Km), ADP-Glo luminescence
Experimental: KIF18A Enzyme Assay: Microtubule-stimulated ATPase activity assay is used to measure KIF18A enzyme activity after treatment with compound. Compounds were 2-fold serially diluted in DMSO (Sigma Inc) over 22-point concentration range. […] The assay measures ADP formed from the ATPase reaction. […] Read luminescence using EnVision microplate reader with ultra-luminescence module (Perkin Elmer Inc). Concentration-response curve-fitting and IC50 determination was performed using Genedata Screener Software (Standard 15.0.1, Genedata Inc) with a four-parameter logistic regression fit model.

T1 sequence (Q8NI77 1-467): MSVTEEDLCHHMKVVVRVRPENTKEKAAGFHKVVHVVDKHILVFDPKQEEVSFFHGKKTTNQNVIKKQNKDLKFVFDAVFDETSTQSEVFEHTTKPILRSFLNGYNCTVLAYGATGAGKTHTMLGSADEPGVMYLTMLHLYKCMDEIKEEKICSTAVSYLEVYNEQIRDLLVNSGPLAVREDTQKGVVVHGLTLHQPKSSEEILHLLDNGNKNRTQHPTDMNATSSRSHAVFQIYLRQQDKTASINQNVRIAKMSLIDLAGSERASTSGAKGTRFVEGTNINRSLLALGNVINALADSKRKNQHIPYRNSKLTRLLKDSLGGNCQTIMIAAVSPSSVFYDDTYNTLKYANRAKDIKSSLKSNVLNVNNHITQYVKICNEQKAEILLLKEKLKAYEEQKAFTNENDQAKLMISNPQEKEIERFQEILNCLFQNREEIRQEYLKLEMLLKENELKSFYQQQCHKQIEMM
T1 sequence (P02550 whole entry partner): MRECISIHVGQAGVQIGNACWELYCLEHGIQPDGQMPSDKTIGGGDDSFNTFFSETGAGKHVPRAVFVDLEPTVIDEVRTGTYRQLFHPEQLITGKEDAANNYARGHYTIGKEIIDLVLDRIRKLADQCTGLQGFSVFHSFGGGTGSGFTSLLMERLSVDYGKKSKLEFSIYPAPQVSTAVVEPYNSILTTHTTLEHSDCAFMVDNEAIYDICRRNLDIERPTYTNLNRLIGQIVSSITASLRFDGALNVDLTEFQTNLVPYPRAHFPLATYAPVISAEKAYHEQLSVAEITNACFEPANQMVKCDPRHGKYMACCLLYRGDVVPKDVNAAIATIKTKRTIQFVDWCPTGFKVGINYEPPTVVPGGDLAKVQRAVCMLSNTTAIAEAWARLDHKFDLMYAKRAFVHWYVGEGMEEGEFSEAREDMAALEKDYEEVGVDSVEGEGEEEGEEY
T1 sequence (P02554 whole entry partner): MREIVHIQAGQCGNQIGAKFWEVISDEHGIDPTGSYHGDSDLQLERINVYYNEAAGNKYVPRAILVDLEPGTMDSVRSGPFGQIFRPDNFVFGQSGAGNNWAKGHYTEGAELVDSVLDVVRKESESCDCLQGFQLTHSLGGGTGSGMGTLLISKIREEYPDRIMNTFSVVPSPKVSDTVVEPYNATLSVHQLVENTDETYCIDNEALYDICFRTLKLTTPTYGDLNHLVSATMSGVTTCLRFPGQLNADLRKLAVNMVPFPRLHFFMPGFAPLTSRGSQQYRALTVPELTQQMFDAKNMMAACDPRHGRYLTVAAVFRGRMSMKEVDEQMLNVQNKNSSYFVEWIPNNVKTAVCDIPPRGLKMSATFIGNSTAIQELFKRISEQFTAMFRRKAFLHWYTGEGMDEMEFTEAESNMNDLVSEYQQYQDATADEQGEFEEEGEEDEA

SMILES	IC50
CC(C)(C)NS(=O)(=O)c1ccc(C(=O)Nc2cccc(NC3(CO)COC3)n2)c(N2CCC3(CC2)CC3)c1 [Example 3-4, 4-(N-(tert-Butyl)sulfamoyl)-N-(6-((3-(hydroxymethyl)oxetan-3-yl)amino)pyridin-2-yl)-2-(6-azaspiro[2.5]octan-6-yl)benzamide]	149 nM
CC1(S(=O)(=O)Nc2ccc(C(=O)Nc3cccc(N4CCC(F)(F)C4)n3)c(N3CCC4(CC3)CC4)c2)CC1 [Example 3-5, N-(6-(3,3-Difluoropyrrolidin-1-yl)pyridin-2-yl)-4-((1-methylcyclopropane)-1-sulfonamido)-2-(6-azaspiro[2.5]octan-6-yl)benzamide]	45 nM
CC1(S(=O)(=O)Nc2ccc(C(=O)Nc3cccc(N4CCC[C@@H](CO)C4)n3)c(N3CCC4(CC3)CC4)c2)CC1 [Example 3-6, (R)-N-(6-(3-(Hydroxymethyl)piperidin-1-yl)pyridin-2-yl)-4-((1-methylcyclopropane)-1-sulfonamido)-2-(6-azaspiro[2.5]octan-6-yl)benzamide]	86 nM
CC1(S(=O)(=O)Nc2ccc(C(=O)Nc3cccc(N4CCC[C@H](CO)C4)n3)c(N3CCC4(CC3)CC4)c2)CC1 [Example 3-7, (S)-N-(6-(3-(Hydroxymethyl)piperidin-1-yl)pyridin-2-yl)-4-((1-methylcyclopropane)-1-sulfonamido)-2-(6-azaspiro[2.5]octan-6-yl)benzamide]	65 nM
CC1(O)CCN(c2cccc(NC(=O)c3ccc(NS(=O)(=O)C4(C)CC4)cc3N3CCC4(CC3)CC4)n2)CC1 [Example 3-8, N-(6-(4-Hydroxy-4-methylpiperidin-1-yl)pyridin-2-yl)-4-((1-methylcyclopropane)-1-sulfonamido)-2-(6-azaspiro[2.5]octan-6-yl)benzamide]	243 nM
CC1(S(=O)(=O)Nc2ccc(C(=O)Nc3cccc(N4CCC[C@](C)(O)C4)n3)c(N3CCC4(CC3)CC4)c2)CC1 [Example 3-9, (S)-N-(6-(3-Hydroxy-3-methylpiperidin-1-yl)pyridin-2-yl)-4-((1-methylcyclopropane)-1-sulfonamido)-2-(6-azaspiro[2.5]octan-6-yl)benzamide]	175 nM
CC1(S(=O)(=O)Nc2ccc(C(=O)Nc3cccc(N4CCC[C@@](C)(O)C4)n3)c(N3CCC4(CC3)CC4)c2)CC1 [Example 3-10, (R)-N-(6-(3-Hydroxy-3-methylpiperidin-1-yl)pyridin-2-yl)-4-((1-methylcyclopropane)-1-sulfonamido)-2-(6-azaspiro[2.5]octan-6-yl)benzamide]	143 nM
CC1(S(=O)(=O)Nc2ccc(C(=O)Nc3cccc(N4CCO[C@@H](CO)C4)n3)c(N3CCC4(CC3)CC4)c2)CC1 [Example 3-11, (R)-N-(6-(2-(Hydroxymethyl)morpholino)pyridin-2-yl)-4-((1-methylcyclopropane)-1-sulfonamido)-2-(6-azaspiro[2.5]octan-6-yl)benzamide]	73 nM
CC1(S(=O)(=O)Nc2ccc(C(=O)Nc3cccc(N4CCO[C@H](CO)C4)n3)c(N3CCC4(CC3)CC4)c2)CC1 [Example 3-12, (S)-N-(6-(2-(Hydroxymethyl)morpholino)pyridin-2-yl)-4-((1-methylcyclopropane)-1-sulfonamido)-2-(6-azaspiro[2.5]octan-6-yl)benzamide]	81 nM
CC1(F)CCN(c2cccc(NC(=O)c3ccc(NS(=O)(=O)C4(C)CC4)cc3N3CCC4(CC3)CC4)n2)CC1 [Example 3-13, N-(6-(4-Fluoro-4-methylpiperidin-1-yl)pyridin-2-yl)-4-((1-methylcyclopropane)-1-sulfonamido)-2-(6-azaspiro[2.5]octan-6-yl)benzamide]	373 nM
CC1(S(=O)(=O)Nc2ccc(C(=O)Nc3cccc(N4CCCC(F)(F)C4)n3)c(N3CCC4(CC3)CC4)c2)CC1 [Example 3-14, N-(6-(3,3-Difluoropiperidin-1-yl)pyridin-2-yl)-4-((1-methylcyclopropane)-1-sulfonamido)-2-(6-azaspiro[2.5]octan-6-yl)benzamide]	38 nM
CC1(S(=O)(=O)Nc2ccc(C(=O)Nc3cccc(N4CCc5cc(Cl)ccc54)n3)c(N3CCC4(CC3)CC4)c2)CC1 [Example 3-15, N-(6-(5-Chloroindolin-1-yl)pyridin-2-yl)-4-((1-methylcyclopropane)-1-sulfonamido)-2-(6-azaspiro[2.5]octan-6-yl)benzamide]	33 nM
CC1(S(=O)(=O)Nc2ccc(C(=O)Nc3cccc(N4CC(F)C4)n3)c(N3CCC4(CC3)CC4)c2)CC1 [Example 3-16, N-(6-(3-Fluoroazetidin-1-yl)pyridin-2-yl)-4-((1-methylcyclopropane)-1-sulfonamido)-2-(6-azaspiro[2.5]octan-6-yl)benzamide]	58 nM
CC1(S(=O)(=O)Nc2ccc(C(=O)Nc3cccc(N4CCCCC4)n3)c(N3CCC4(CC3)CC4)c2)CC1 [Example 3-17, 4-((1-Methylcyclopropane)-1-sulfonamido)-N-(6-(piperidin-1-yl)pyridin-2-yl)-2-(6-azaspiro[2.5]octan-6-yl)benzamide]	34 nM
CC1(S(=O)(=O)Nc2ccc(C(=O)Nc3cccc(N4CC(F)(F)C4)n3)c(N3CCC4(CC3)CC4)c2)CC1 [Example 3-18, N-(6-(3,3-Difluoroazetidin-1-yl)pyridin-2-yl)-4-((1-methylcyclopropane)-1-sulfonamido)-2-(6-azaspiro[2.5]octan-6-yl)benzamide]	48 nM
Cc1cc(NC(=O)c2ccc(NS(=O)(=O)C3(C)CC3)cc2N2CCC3(CC2)CC3)nc(N2CC(F)(F)C2)c1 [Example 3-19, N-(6-(3,3-Difluoroazetidin-1-yl)-4-methylpyridin-2-yl)-4-((1-methylcyclopropane)-1-sulfonamido)-2-(6-azaspiro[2.5]octan-6-yl)benzamide]	103 nM
CC1(S(=O)(=O)Nc2ccc(C(=O)Nc3cccc(N4CCC5(CC5)C4)n3)c(N3CCC4(CC3)CC4)c2)CC1 [Example 3-20, N-(6-(5-Azaspiro[2.4]heptan-5-yl)pyridin-2-yl)-4-((1-methylcyclopropane)-1-sulfonamido)-2-(6-azaspiro[2.5]octan-6-yl)benzamide]	50 nM
CC1(S(=O)(=O)Nc2ccc(C(=O)Nc3cccc(N4CCC(C#N)CC4)n3)c(N3CCC4(CC3)CC4)c2)CC1 [Example 3-21, N-(6-(4-Cyanopiperidin-1-yl)pyridin-2-yl)-4-((1-methylcyclopropane)-1-sulfonamido)-2-(6-azaspiro[2.5]octan-6-yl)benzamide]	91 nM
CC1(S(=O)(=O)Nc2ccc(C(=O)Nc3cccc(N4CCCC(C#N)C4)n3)c(N3CCC4(CC3)CC4)c2)CC1 (centres unmarked) [Example 3-22, N-(6-(3-Cyanopiperidin-1-yl)pyridin-2-yl)-4-((1-methylcyclopropane)-1-sulfonamido)-2-(6-azaspiro[2.5]octan-6-yl)benzamide]	86 nM
CS(=O)(=O)Cc1ccc(C(=O)Nc2cccc(N3CCC[C@@H](O)C3)n2)c(N2CCC3(CC2)CC3)c1 [Example 4, (R)-N-(6-(3-hydroxypiperidin-1-yl)pyridin-2-yl)-4-((methylsulfonyl)methyl)-2-(6-azaspiro[2.5]octan-6-yl)benzamide]	94 nM
CC(C)(O)c1cccc(NC(=O)c2ccc(NS(=O)(=O)C3(C)CC3)cc2N2CCC3(CC2)CC3)n1 [Example 4-1, N-(6-(2-Hydroxypropan-2-yl)pyridin-2-yl)-4-((1-methylcyclopropane)-1-sulfonamido)-2-(6-azaspiro[2.5]octan-6-yl)benzamide]	128 nM
CC1(NS(=O)(=O)c2ccc(C(=O)Nc3cccc(C(C)(C)O)n3)c(N3CCC4(CC3)CC4)c2)COC1 [Example 4-2, N-(6-(2-Hydroxypropan-2-yl)pyridin-2-yl)-4-(N-(3-methyloxetan-3-yl)sulfamoyl)-2-(6-azaspiro[2.5]octan-6-yl)benzamide]	80 nM
CC(C)(C)NS(=O)(=O)c1ccc(C(=O)Nc2cccc(N3CCO[C@H](CO)C3)n2)c(N2CCC3(CC2)CC3)c1 [Example 4-3, (S)-4-(N-(tert-Butyl)sulfamoyl)-N-(6-(2-(hydroxymethyl)morpholino)pyridin-2-yl)-2-(6-azaspiro[2.5]octan-6-yl)benzamide]	86 nM
CS(=O)(=O)c1ccc(C(=O)Nc2cccc(C3CC3)n2)c(N2CCC3(CC2)CC3)c1 [Example 4-4, N-(6-Cyclopropylpyridin-2-yl)-4-(methylsulfonyl)-2-(6-azaspiro[2.5]octan-6-yl)benzamide]	180 nM
CC(C)c1cccc(NC(=O)c2ccc(S(C)(=O)=O)cc2N2CCC3(CC2)CC3)n1 [Example 4-5, N-(6-Isopropylpyridin-2-yl)-4-(methylsulfonyl)-2-(6-azaspiro[2.5]octan-6-yl)benzamide]	179 nM
CC(C)(C)c1cccc(NC(=O)c2ccc(S(C)(=O)=O)cc2N2CCC3(CC2)CC3)n1 [Example 4-6, N-(6-(tert-Butyl)pyridin-2-yl)-4-(methylsulfonyl)-2-(6-azaspiro[2.5]octan-6-yl)benzamide]	166 nM
CC(C)(O)c1cccc(NC(=O)c2ccc(S(C)(=O)=O)cc2N2CCC3(CC2)CC3)n1 [Example 4-7, N-(6-(2-Hydroxypropan-2-yl)pyridin-2-yl)-4-(methylsulfonyl)-2-(6-azaspiro[2.5]octan-6-yl)benzamide]	315 nM
CC(C)(C)NS(=O)(=O)c1cccc(NC(=O)c2ccc(S(C)(=O)=O)cc2N2CCC3(CC2)CC3)n1 [Example 4-8, N-(6-(N-(tert-Butyl)sulfamoyl)pyridin-2-yl)-4-(methylsulfonyl)-2-(6-azaspiro[2.5]octan-6-yl)benzamide]	76 nM
CC1(S(=O)(=O)Nc2ccc(C(=O)Nc3cccc(N4CCC(F)(F)CC4)n3)c(N3CCC4(CC3)CC4)c2)CC1 [Example 4-9, N-(6-(4,4-Difluoropiperidin-1-yl)pyridin-2-yl)-4-((1-methylcyclopropane)-1-sulfonamido)-2-(6-azaspiro[2.5]octan-6-yl)benzamide]	46 nM
